In US20260265694A1, “USE OF A VITISIN COMPOUND FOR THE PRODUCTION OF HEMATOPOIETIC CELLS” (ETABLISSEMENT FRANCAIS DU SANG, priority 2022, published 2026):

Columns and labels:
[1] = tested on: SP cells (CD34+DCVlow) isolated from peripheral blood CD34+ cells; experiment: ERYTHRO 1 PROTOCOL on sorted SP cells; type: cell-based, human; details: SPs, 10 μM, as early as D7, FIG. 4B
Protocol: SP cells are identifiable by virtue of their property of expelling certain dyes such as Hoescht or Dye Cycle Violet (DCV)). This expulsion takes place by means of […] ATP Binding Cassette (ABCG2) pumps (Brunet de la Grange et al., 2013). To identify SP cells within previously isolated CD34^+ cells, they are incubated with a DCV dye (5 μM) in DMEM^+ medium (Dulbecco's Modified Eagle's Medium (DMEM), 2% FCS, 1% HEPES) for 2 h at 37° C. and in the dark. After incubation, all manipulations up to final cell sorting are performed on ice and in PBS^+ medium (PBS, 2% FCS), a glucose- and calcium-depleted medium which stops the expulsion pumps. […] CD34^+ cells having a low fluorescence intensity for the DCV marker (CD34^+ SP cells) are analyzed (UV 350 nm or violet 405 nm), sorted and recovered using an ARIA cell sorter (Becton Dickinson). […]
In order to test the effect of vitisin B in this context, the culturing is performed in the absence and presence of vitisin B: • CTRL condition: Absence of vitisin B throughout the entire protocol. • Test condition: Presence of vitisin B at 5, 10, 15, 20 or 30 μM for the entire duration of the protocol (phase 1+phase 2). During the culture protocol, the differentiation product is analyzed by quantifying proliferation (counting) and analyzing erythrocyte differentiation markers by means of flow cytometry, using the markers CD71 and CD235a. c. […]

[2] = tested on: MEP isolated from peripheral blood CD34+ cells; experiment: ERYTHRO 1 PROTOCOL on sorted MEP cells; type: cell-based, human; details: MEPs, 10 μM
Protocol: b. Isolation of CMP and MEP Progenitors The CD34^+ cells previously isolated via an immunomagnetic technique were marked with anti-CD34-BV421 (1:100 000), anti-CD45RA-BB517 (1:100 000), anti-CD123-Alexa647 (1.5:100 000) antibodies (BD Pharmingen) and a cocktail of anti-LIN-PE antibodies (2:100 000) for 15 minutes. The LIN cocktail antibodies are directed against markers specific to mature cells (CD2, CD3, CD4, CD7, CD8, CD10, CD11b, CD14, CD19, CD20, CD56, CD235a). This LIN cocktail thus allows enrichment in “LIN^neg” immature cells by depletion of mature cells. After incubation with these antibodies, the cells are rinsed with a solution of PBS^+ (PBS+2% Fetal Calf Serum (FCS)) and centrifuged (430×g, 10 min. 4° C.). After resuspension of the cells in PBS^+, CMPs with the phenotype CD34^+LIN^negCD123^+CD45RA^neg and MEPs with the phenotype CD34^+LIN^negCD123^negCD45RA^neg are sorted and harvested using an ARIA cell sorter (Manz et al., 2002). c. Isolation of BFU-E and CFU-E Progenitors Placental blood CD34^+ cells, previously isolated by immunomagnetic sorting, are marked with antibodies specific to surface antigens allowing them to target and discriminate BFU-E primitive erythrocyte progenitors, namely anti-CD34, anti-GPA, anti CD123 and anti-CD36 antibodies. Primitive erythrocyte progenitors (BFU-Es) are defined by the following phenotype: CD34^+CD123^negCD36^negGPA^neg. […]

SMILES: Oc1ccc(C2Oc3ccc(/C=C/c4cc(O)cc5c4[C@H](c4cc(O)cc(O)c4)[C@@H](c4ccc(O)cc4)O5)cc3C2c2cc(O)cc3c2C(c2cc(O)cc(O)c2)C(c2ccc(O)cc2)O3)cc1 (stereo in doubt) [vitisin B, 5-[(2R,2'S,3R,3'S)-5-[(1E)-2-[(2S,3S)-3-(3,5-Dihydroxyphenyl)-2,3-dihydro-6-hydroxy-2-(4-hydroxyphenyl)-4-benzofuranyl]ethenyl]-2,2′,3,3′-tetrahydro-6′-hydroxy-2,2′-bis(4-hydroxyphenyl)[3,4′-bibenzofuran]-3′-yl]-1,3-benzenediol]
- reduction relative to the control in CD71 membrane expression [1]: up to 40%
- erythrocyte differentiation (acquisition of the phenotype CD71+GPA+) ([2]; FIG. 4A): acceleration of erythrocyte differentiation
- reduction relative to the control in CD71 membrane expression ([2]; as early as D7, FIG. 4B): up to 40%
